Measurements from patent US20260125400A1, “TYK2 DEGRADERS AND USES THEREOF” (Kymera Therapeutics, Inc., priority 2023, published 2026).
Like-named read-outs stand apart in the source and are kept apart here.

Molecular target: T1, TYK2 (Homo sapiens, UniProt P29597)
T1 construct: Degradation of TYK2 in cells was quantitatively measured using Meso Scale Discovery (MSD) technology; endogenous in cells; host or cells: OCI-LY10
Test: TYK2 MSD degradation in OCI-LY10 cells
Assay type: cell-based
Settings: 4 to 24 hours incubation; for DC50: read-out: TYK2 MSD OCI-LY10 Rel-DC50
Outline: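 OCI-LY10 cells were treated with 9-dose 1:3 series (top 1 to 10 μM final) for 4 to 24 hours at 37° C. Lysate TYK2 quantified by MSD sandwich immunoassay; DC50 and Dmax from four-parameter inhibitor vs. response fit.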

[1] = TYK2 degradation in OCI-LY10 cells

T1 sequence (P29597 whole entry): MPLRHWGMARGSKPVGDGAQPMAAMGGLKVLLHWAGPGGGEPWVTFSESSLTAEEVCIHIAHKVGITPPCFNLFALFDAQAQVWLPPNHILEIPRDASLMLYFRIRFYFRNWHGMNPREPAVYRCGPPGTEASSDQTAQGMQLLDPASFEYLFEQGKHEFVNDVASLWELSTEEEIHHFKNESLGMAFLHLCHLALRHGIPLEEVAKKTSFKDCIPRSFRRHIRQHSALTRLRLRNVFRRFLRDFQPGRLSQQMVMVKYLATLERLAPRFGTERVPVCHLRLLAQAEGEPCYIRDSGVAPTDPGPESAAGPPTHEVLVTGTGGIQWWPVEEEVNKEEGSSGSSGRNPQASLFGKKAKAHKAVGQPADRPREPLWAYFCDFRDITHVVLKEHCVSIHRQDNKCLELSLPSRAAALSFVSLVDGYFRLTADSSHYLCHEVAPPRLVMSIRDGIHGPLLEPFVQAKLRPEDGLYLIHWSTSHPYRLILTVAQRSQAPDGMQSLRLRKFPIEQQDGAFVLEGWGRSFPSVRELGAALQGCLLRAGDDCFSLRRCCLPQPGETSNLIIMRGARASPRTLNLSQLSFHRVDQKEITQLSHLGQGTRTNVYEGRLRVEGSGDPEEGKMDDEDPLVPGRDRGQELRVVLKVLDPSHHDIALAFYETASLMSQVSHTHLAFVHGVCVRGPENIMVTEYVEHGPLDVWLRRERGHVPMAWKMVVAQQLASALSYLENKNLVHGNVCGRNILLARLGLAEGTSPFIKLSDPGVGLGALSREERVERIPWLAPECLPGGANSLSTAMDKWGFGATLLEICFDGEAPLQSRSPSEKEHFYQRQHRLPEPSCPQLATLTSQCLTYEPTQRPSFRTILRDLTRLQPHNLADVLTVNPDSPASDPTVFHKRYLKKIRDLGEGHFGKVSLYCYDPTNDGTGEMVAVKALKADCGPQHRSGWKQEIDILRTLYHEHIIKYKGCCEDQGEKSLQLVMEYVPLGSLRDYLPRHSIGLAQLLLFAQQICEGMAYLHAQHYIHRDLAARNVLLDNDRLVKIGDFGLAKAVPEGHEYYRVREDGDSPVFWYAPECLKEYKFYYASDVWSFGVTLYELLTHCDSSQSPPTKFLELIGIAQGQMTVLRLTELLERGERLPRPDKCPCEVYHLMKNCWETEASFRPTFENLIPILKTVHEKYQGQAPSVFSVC

Structure (SMILES) | TYK2 MSD OCI-LY10 Dmax % [1] | DC50 [1] [nM] | TYK2 MSD OCI-LY10 Dmax % (OCI-LY10 cells) | DC50 (OCI-LY10 cells) [nM]
CNc1cc(N2CCc3c(-c4ccc(CN5CC6(CCN(C(=O)c7ccc(C)c(N8CCC(=O)NC8=O)c7)CC6(F)F)C5)cn4)cc(F)cc32)nn2c(C(=O)NC3CC3F)cnc12 (stereo not shown) [I-357] | A (A (>90%)) | < 1 | – | –
CNc1cc(N2CCc3c(-c4ccc(CC5CN(C6CCN(C7CCN(c8ccc9c(c8)n(C)c(=O)n9C8CCC(=O)NC8=O)CC7)CC6(F)F)C5)cn4)cccc32)nn2c(C(=O)N[C@@H]3C[C@@H]3F)cnc12 (stereo partly shown) [I-359] | B (B (90 to >75%)) | < 1 | – | –
CNc1cc(N2CCc3c(-c4ccc(CN5CCC(N6CCC(C7CCN(c8ccc9c(c8)n(C)c(=O)n9C8CCC(=O)NC8=O)CC7)CC6)C(F)(F)C5)cn4)cccc32)nn2c(C(=O)N[C@@H]3C[C@@H]3F)cnc12 (stereo partly shown) [I-360] | B (B (90 to >75%)) | < 10 | – | –
CNc1cc(N2CCc3c(CN4CCC(N5CCC6(CCN(C(=O)c7ccc(Cl)c(N8CCC(=O)NC8=O)c7)CC6)CC5)C(F)(F)C4)cccc32)nn2c(C(=O)N[C@@H]3C[C@@H]3F)cnc12 (stereo partly shown) [I-361] | B (B (90 to >75%)) | < 1 | – | –
CNc1cc(N2CCc3c(-c4ccc(OC5CCC6(CC5)CCN(Cc5ccc(Cl)c(N7CCC(=O)NC7=O)c5)CC6)cn4)cccc32)nn2c(C(=O)N[C@@H]3C[C@@H]3F)cnc12 [I-362] | D (D (<50%)) | > 100 | – | –
CNc1cc(N2CCc3c(-c4ccc(CN5CCC6(CCN(Cc7ccc(Cl)c(N8CCC(=O)NC8=O)c7)CC6)C(F)(F)C5)cn4)cccc32)nn2c(C(=O)NC3CC3)cnc12 [I-363] | D (D (<50%)) | > 100 | – | –
CNc1cc(N2CCc3c(-c4ccc(CN5CC6(CCN(Cc7ccc(Cl)c(C8CCC(=O)NC8=O)c7)CC6(F)F)C5)cn4)cccc32)nn2c(C(=O)N[C@@H]3C[C@@H]3F)cnc12 (stereo partly shown) [I-365] | C (C (75 to 50%)) | < 10 | – | –
CNc1cc(N2CCc3c(-c4ccc(CN5CC6(CCN(Cc7ccc(C)c(N8CCC(=O)NC8=O)c7)CC6(F)F)C5)cn4)cccc32)nn2c(C(=O)N[C@@H]3C[C@@H]3F)cnc12 [I-366] | D (D (<50%)) | < 10 | – | –
CNc1cc(N2CCc3c(-c4ccc(CN5CC6(CCN(Cc7ccc(OC)c(N8CCC(=O)NC8=O)c7)CC6(F)F)C5)cn4)cccc32)nn2c(C(=O)N[C@@H]3C[C@@H]3F)cnc12 [I-367] | C (C (75 to 50%)) | < 10 | – | –
CNc1cc(N2CCc3c(CN4CCC(N5CCC(CC#Cc6ccc7c(c6)n(C)c(=O)n7C6CCC(=O)NC6=O)CC5)C(F)(F)C4)cccc32)nn2c(C(=O)N[C@@H]3C[C@@H]3F)cnc12 (stereo partly shown) [I-368] | D (D (<50%)) | > 100 | – | –
CNc1cc(N2CCc3c(-c4ccc(CN5CC6(CCN(Cc7ccc(Cl)c(N8CCC(=O)NC8=O)c7)CC6(F)F)C5)cn4)cccc32)nn2c(C(=O)N[C@@H]3C[C@@H]3F)cnc12 [I-369] | D (D (<50%)) | > 100 | – | –
CNc1cc(N2CCc3c(C#CCN4CCC5(CN(C(=O)c6ccc(Cl)c(N7CCC(=O)NC7=O)c6)C5)C(F)(F)C4)cccc32)nn2c(C(=O)N[C@@H]3C[C@@H]3F)cnc12 [I-370] | D (D (<50%)) | > 100 | – | –
CNc1cc(N2CCc3c(-c4ccc(CN5CCC(N6CCC7(CCN(c8ccc9c(c8)n(C)c(=O)n9C8CCC(=O)NC8=O)CC7)CC6)C(F)(F)C5)cn4)cccc32)nn2c(C(=O)N[C@@H]3C[C@@H]3F)cnc12 (stereo partly shown) [I-371] | C (C (75 to 50%)) | < 10 | – | –
CNc1cc(N2CCc3c(CN4CCC(N5CCC(OCC#Cc6cccc7c6n(C)c(=O)n7C6CCC(=O)NC6=O)CC5)C(F)(F)C4)cccc32)nn2c(C(=O)N[C@@H]3C[C@@H]3F)cnc12 (stereo partly shown) [I-372] | D (D (<50%)) | < 10 | – | –
CNc1cc(N2CCc3c(-c4ccc(CN5CCN(Cc6ccc(C7CCC(=O)NC7=O)c(Cl)c6)CC5)cn4)cccc32)nn2c(C(=O)N[C@@H]3C[C@@H]3F)cnc12 (stereo partly shown) [I-374] | D (D (<50%)) | < 10 | – | –
CNc1cc(N2CCc3c(-c4ccc(CN5CCC(Oc6ccc(C7CCC(=O)NC7=O)c(Cl)c6)CC5)cn4)cccc32)nn2c(C(=O)N[C@@H]3C[C@@H]3F)cnc12 (stereo partly shown) [I-387] | B (B (90 to >75%)) | 10 to 100 | – | –
CNc1cc(N2CCc3c(-c4ccc(CN5CCN(Cc6ccc(NC7CCC(=O)NC7=O)c(Cl)c6)CC5)cn4)cccc32)nn2c(C(=O)N[C@@H]3C[C@@H]3F)cnc12 (stereo partly shown) [I-389] | C (C (75 to 50%)) | < 10 | – | –
CNc1cc(N2CCc3c(-c4cc(CN5CCN(CCc6ccc(Cl)c(C7CCC(=O)NC7=O)c6)CC5)ccn4)cccc32)nn2c(C(=O)NC3CC3F)cnc12 (stereo not shown) [I-395] | – | – | D (D (<50%)) | > 100

Structure (SMILES) | TYK2 MSD OCI-LY10 Dmax % [1] | DC50 [1] [nM] | TYK2 MSD OCI-LY10 Dmax % (OCI-LY10 cells) | DC50 (OCI-LY10 cells) [nM]
CNc1cc(N2CCc3c(CN4CCC(N5CCN(Cc6ccc(Cl)c(C7CCC(=O)NC7=O)c6)CC5)C(F)(F)C4)cccc32)nn2c(C(=O)NC3CC3F)cnc12 (stereo not shown) [I-421] | – | – | D (D (<50%)) | > 100
CNc1cc(N2CCc3c(-c4ccc(OCC5CCN(Cc6ccc(Cl)c(C7CCC(=O)NC7=O)c6)CC5)cn4)cccc32)nn2c(C(=O)N[C@@H]3C[C@@H]3F)cnc12 (stereo partly shown) [I-425] | – | – | D (D (<50%)) | > 100
CNc1cc(N2CCc3c2cccc3C23CC(CN4CCC(N5CC(N6CCN(c7cccc8c7n(C)c(=O)n8C7CCC(=O)NC7=O)CC6)C5)C(F)(F)C4)(C2)C3)nn2c(C(=O)N[C@@H]3C[C@@H]3F)cnc12 (stereo partly shown) [I-429] | – | – | B (B (90 to >75%)) | < 10
CNc1cc(N2CCc3c(-c4ccc(CN5CC6(CCN(Cc7ccc(OC)c(C8CCC(=O)NC8=O)c7)CC6(F)F)C5)cn4)cccc32)nn2c(C(=O)N[C@@H]3C[C@@H]3F)cnc12 (stereo partly shown) [I-431] | – | – | B (B (90 to >75%)) | < 10
CNc1cc(N2CCc3c(-c4ccc(CN5CC6(CCN(Cc7cc(N8CCC(=O)NC8=O)c(Cl)cc7C)CC6(F)F)C5)cn4)cccc32)nn2c(C(=O)N[C@@H]3C[C@@H]3F)cnc12 [I-456] | – | – | D (D (<50%)) | > 100
CNc1cc(N2CCc3c(-c4ccc(CN5CC6(CCN(Cc7c(C)ccc(N8CCC(=O)NC8=O)c7C)CC6(F)F)C5)cn4)cccc32)nn2c(C(=O)N[C@@H]3C[C@@H]3F)cnc12 [I-458] | – | – | D (D (<50%)) | < 10
CNc1cc(N2CCc3c(-c4ccc(CN5CCC6(CC5)CC(COc5ccc(C7CCC(=O)NC7=O)c(Cl)c5)C6)cn4)cccc32)nn2c(C(=O)N[C@@H]3C[C@@H]3F)cnc12 (stereo partly shown) [I-460] | – | – | D (D (<50%)) | > 100
CNc1cc(N2CCc3c(-c4ccc(CN5CCC6(CC5)CC(COc5ccc(Cl)c(C7CCC(=O)NC7=O)c5)C6)cn4)cccc32)nn2c(C(=O)N[C@@H]3C[C@@H]3F)cnc12 (stereo partly shown) [I-461] | – | – | D (D (<50%)) | < 10
CNc1cc(N2CCc3c(-c4ccc(CN5CC6(CCC(COc7ccc(Cl)c(C8CCC(=O)NC8=O)c7)CC6)C5)cn4)cccc32)nn2c(C(=O)N[C@@H]3C[C@@H]3F)cnc12 (stereo partly shown) [I-462] | – | – | D (D (<50%)) | 10 to 100
CNc1cc(N2CCc3c(-c4ccc(CN5CC6(CCC(COc7ccc(C8CCC(=O)NC8=O)c(Cl)c7)CC6)C5)cn4)cccc32)nn2c(C(=O)N[C@@H]3C[C@@H]3F)cnc12 (stereo partly shown) [I-463] | – | – | D (D (<50%)) | > 100
CNc1cc(N2CCc3c(-c4cnc(CN5CC6(CCN(C(=O)c7ccc(Cl)c(N8CCC(=O)NC8=O)c7)CC6)C5)nc4)cccc32)nn2c(C(=O)N[C@@H]3C[C@@H]3F)cnc12 [I-465] | – | – | B (B (90 to >75%)) | < 10
CNc1cc(N2CCc3c(-c4cnc(CN5CC6(CCN(C(=O)c7ccc(Cl)c(N8CCC(=O)NC8=O)c7)CC6)C5)cn4)cccc32)nn2c(C(=O)N[C@@H]3C[C@@H]3F)cnc12 [I-466] | – | – | A (A (>90%)) | < 1
CNc1cc(N2CCc3c(C#CCN4CCC(N5CCC(C6CCN(c7ccc8c(c7)n(C)c(=O)n8C7CCC(=O)NC7=O)CC6)CC5)C(F)(F)C4)cccc32)nn2c(C(=O)N[C@@H]3C[C@@H]3F)cnc12 (stereo partly shown) [I-467] | – | – | B (B (90 to >75%)) | < 10
CNc1cc(N2CCc3c(CN4CCC(N5CC(CN6CCN(c7ccc8c(c7)n(C)c(=O)n8C7CCC(=O)NC7=O)CC6)C5)C(F)(F)C4)cccc32)nn2c(C(=O)N[C@@H]3C[C@@H]3F)cnc12 (stereo partly shown) [I-468] | – | – | B (B (90 to >75%)) | < 1
CNc1cc(N2CCc3c(-c4ccc(CN5CCC(N6CCC(CC#Cc7ccc8c(c7)n(C)c(=O)n8C7CCC(=O)NC7=O)CC6)C(F)(F)C5)cn4)cccc32)nn2c(C(=O)N[C@@H]3C[C@@H]3F)cnc12 (stereo partly shown) [I-469] | – | – | B (B (90 to >75%)) | < 10
CNc1cc(N2CCc3c(-c4ccc(CN5CCC(N6CC(N7CCN(c8ccc9c(c8F)n(C)c(=O)n9C8CCC(=O)NC8=O)CC7)C6)C(F)(F)C5)cn4)cccc32)nn2c(C(=O)N[C@@H]3C[C@@H]3F)cnc12 (stereo partly shown) [I-470] | – | – | B (B (90 to >75%)) | < 1
CNc1cc(N2CCc3c(CN4CCC(N5CC(N6CCN(c7cccc8c7n(C)c(=O)n8C7CCC(=O)NC7=O)CC6)C5)C(F)(F)C4)cccc32)nn2c(C(=O)N[C@@H]3C[C@@H]3F)cnc12 (stereo partly shown) [I-471] | – | – | B (B (90 to >75%)) | < 1
